Laboratory results: US7638320B2, “Bengamide derivatives, process for preparing them, and their use” (sanofi-aventis Deutschland GmbH, priority 2003, dated 2009)
Like-named read-outs stand apart in the source and are kept apart here.

Assays:
[1] = system: Hep-G2 (ATCC No. HB-8065) tumor cell line; assay: Cell proliferation test (intracellular ATP, CellTiterGlo) on Hep-G2; assay type: cell-based; conditions: read-out: Activity in a cell proliferation test, expressed as TC50 value, Hep-G2
Method: (§1) A test which is based on determining the intracellular concentration of ATP is employed for detecting the inhibition of cell proliferation. It is possible to use known tumor cell lines such as Hep-G2 and Colo205. In this test, the ATP content of metabolically active cells serves, in a luciferase reaction, as a measure of the number of living cells.
(§2) The compounds of the formula (II)-(VI) were used in the test in a single dose of 0.3-40 μM and a dose dependency given as a TC50 value, with (IIA) and (IIB) in each case denoting a diastereomer of the compound of the formula (II): […]
(§3) The tumor cell lines Hep-G2 (ATCC No. HB-8065) and COLO 205 (ATCC No. CCL-222) were used for determining the cell proliferation. The cell lines were sown in cell culture medium at the rate of 1000 cells/well [Hep-G2] and, respectively, 3500 cells/well [Colo205] and incubated for 4 hours at 37° C. and 5% CO2.
Medium for Hep-G2: Dulbecco's modified Eagle's medium/Ham's F12 mix (Gibco); NEAA (10%; nonessential amino acids, Gibco), sodium pyruvate (1%, Gibco), L-glutamine (1%, Gibco), fetal calf serum (5%; PAA)].
(§4) After 4 hours, compounds (II), (III) and (IV) and bengamides E and F, dissolved in DMSO/cell culture medium, were added at various dilutions and the mixtures were incubated for 72 hours at 37° C. and 5% CO2. The intracellular content of ATP was determined using the test reagent CellTiterGlo (Promega).

[2] = system: COLO 205 (ATCC No. CCL-222) tumor cell line; assay: Cell proliferation test (intracellular ATP, CellTiterGlo) on COLO 205; assay type: cell-based; conditions: read-out: Activity in a cell proliferation test, expressed as TC50 value, Colo 205
Method: as §1, §2, §3
Medium for COLO 205: RPMI 1640 (Gibco), L-glutamine (1%, Gibco), HEPES (1%, Gibco), fetal calf serum (10%, PAA).
as §4

cell proliferation = conditions: stops cell division at the G1/S restriction point and in the G2/M phase; cited from earlier work
[3] = system: eukaryotic cells, nematodes and bacteria; conditions: Adamczewski et al., J. Org. Chem. 1986; cited from earlier work
[4] = Colo 205, 72 hours incubation, ATP content, tested at 0.3-40 μM

## CO[C@@H](C(=O)N[C@H]1CCCCN(C)C1=O)[C@H](O)[C@@H](O)[C@H](O)/C=C/C(C)C [Bengamide F]
[1]; Hep-G2, 72 hours incubation, ATP content, tested at 0.3-40 μM
  TC50 (50% inhibition of cell proliferation): 27 µM
[2]; [4]
  CC50: 33 µM

## CCC(C)/C=C/C(O)C(O)C(O)[C@@H](OC)C(=O)N[C@H]1CCC(O)CNC1=O (stereo partly shown) [(IV)]
[1]; Homo sapiens, HepG2, 72 h
  TC50 (50% inhibition of cell proliferation): > 40 µM
[2]; [4]
  CC50: 42 µM

## CO[C@@H](C(=O)N[C@H]1CCCCNC1=O)[C@H](O)[C@@H](O)[C@H](O)/C=C/C(C)C [Bengamide E]
[1]; Homo sapiens, HepG2, Hep-G2, 72 hours incubation, ATP content, tested at 0.3-40 μM
  TC50 (50% inhibition of cell proliferation): 36 µM
Cell proliferation
  Inhibition of cell proliferation: inhibits cell proliferation
[2]; [4]
  CC50: 46 µM

## CCC(C)/C=C/C(O)C(O)C(O)[C@@H](OC)C(=O)N[C@H]1CCCCN(C)C1=O (stereo partly shown) [(III)]
[1]; Homo sapiens, HepG2, 72 h
  TC50 (50% inhibition of cell proliferation): 9 µM
[2]; Homo sapiens, COLO 205, 72 h
  CC50: 15 µM

## CCCCCCCCCCCCCC(=O)O[C@H]1CC[C@H](NC(=O)[C@H](OC)[C@H](O)[C@@H](O)[C@H](O)/C=C/C(C)C)C(=O)N(C)C1 [Bengamide B]
[3]
  Biotoxicity to eukaryotic cells, nematodes and bacteria: biotoxic

## CCCCCCCCCCCCCC(=O)O[C@H]1CC[C@H](NC(=O)[C@H](OC)[C@H](O)[C@@H](O)[C@H](O)/C=C/C(C)C)C(=O)NC1 [Bengamide A]
[3]
  Biotoxicity to eukaryotic cells, nematodes and bacteria: biotoxic

## CCC(C)/C=C/C(O)C(O)C(O)[C@@H](OC)C(=O)N[C@H]1CCCCNC1=O (stereo partly shown) [Compound (II)]
[1]; Homo sapiens, HepG2, 72 h
  TC50 (50% inhibition of cell proliferation): 16 µM
[2]; Homo sapiens, COLO 205, 72 h
  CC50: 27 µM
